Laboratory results from PubChem BioAssay AID192 (DTP/NCI, 2004).
Where “and” joins values, the source holds several entries; their conditions need not be identical. Equal entries are not always repeated. Inconclusive results and toxic doses are left out. Rule for the calls: active = survival T/C of 150% or more; inactive = T/C below 125% in these data.

Test system: BDF1 mice, B16 melanoma ip, median survival T/C
Test: NCI In Vivo Anticancer Drug Screen. Data for tumor model B16 Melanoma (intraperitoneal) in B6D2F1 (BDF1) mice
Settings: endpoint: median survival time, higher = longer survival
Method in brief: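 Transplantable tumor model; survival or tumor size measured; reported as T/C, treated over vehicle control.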

[1] = dose: 25.0 mg/kg/injection, schedule: Q01DX009 (ip), vehicle: saline
[2] = dose: 50.0 mg/kg/injection, schedule: Q01DX009 (ip), vehicle: saline
[3] = dose: 50.0 mg/kg/injection, schedule: Q01DX009 (ip), vehicle: saline with Tween-80
[4] = dose: 100.0 mg/kg/injection, schedule: Q01DX009 (ip), vehicle: saline with Tween-80
[5] = dose: 200.0 mg/kg/injection, schedule: Q01DX009 (ip), vehicle: saline with Tween-80
[6] = dose: 12.5 mg/kg/injection, schedule: Q01DX009 (ip), vehicle: saline
[7] = dose: 100.0 mg/kg/injection, schedule: Q01DX009 (ip), vehicle: saline
[8] = dose: 100.0 mg/kg/injection, schedule: Q01DX009 (ip), vehicle: Klucel (hydroxypropylcellulose) (HPC)
[9] = dose: 200.0 mg/kg/injection, schedule: Q01DX009 (ip), vehicle: Klucel (hydroxypropylcellulose) (HPC)
[10] = dose: 50.0 mg/kg/injection, schedule: Q01DX009 (ip), vehicle: Klucel (hydroxypropylcellulose) (HPC)
[11] = dose: 1.25 mg/kg/injection, schedule: Q01DX009 (ip), vehicle: saline
[12] = dose: 200.0 mg/kg/injection, schedule: Q01DX009 (ip), vehicle: saline

Measured: T/C

Oc1ccc(O)cc1
inactive: dose: 0.78 mg/kg/injection, schedule: Q01DX009 (ip), vehicle: saline 92 % of control | dose: 1.56 mg/kg/injection, schedule: Q01DX009 (ip), vehicle: saline 89 % of control | dose: 3.12 mg/kg/injection, schedule: Q01DX009 (ip), vehicle: saline 89 % of control | [1] 89 % of control and 117 % of control | [2] 96 % of control and 118 % of control

COc1ccccc1NC(=O)Nc1ccc(C(=O)OCC(C)C)cc1
inactive: [3] 100 % of control | [4] 94 % of control | [5] 95 % of control

C1CCN(CCC2CCNCC2)CC1
inactive: [1] 109 % of control | [2] 90 % of control

COc1ccccc1NC(=O)Nc1cccc(C(C)=O)c1
inactive: [4] 94 % of control | [5] 92 % of control

O=C1C=CC(n2cc(F)c(=O)[nH]c2=O)O1 (stereo unspecified)
inactive: dose: 6.25 mg/kg/injection, schedule: Q01DX009 (ip), vehicle: saline 97 % of control | [6] 95 % of control | [1] 96 % of control | [2] 107 % of control | [7] 97 % of control

CC(Cc1ccccc1)NC(=O)/C=C/C(=O)O (stereo unspecified)
inactive: [8] 95 % of control | [9] 91 % of control | dose: 400.0 mg/kg/injection, schedule: Q01DX009 (ip), vehicle: Klucel (hydroxypropylcellulose) (HPC) 89 % of control

CCOc1cc(N)ccc1C
inactive: [10] 93 % of control | [8] 93 % of control | [9] 95 % of control

COC(=O)CC(=O)c1ccc(C)cc1
inactive: [8] 103 % of control | [9] 95 % of control

Cc1ccc(S(=O)(=O)Cl)cc1Cl
inactive: dose: 25.0 mg/kg/injection, schedule: Q01DX009 (ip), vehicle: saline with Tween-80 108 % of control | [3] 97 % of control | [4] 86 % of control

C1=Cc2ccccc2/C1=C/c1ccc(/C=C2\C=Cc3ccccc32)cc1
inactive: dose: 100.0 mg/kg/injection, schedule: Q04DX003 (ip), vehicle: Klucel (hydroxypropylcellulose) (HPC) 98 % of control | dose: 200.0 mg/kg/injection, schedule: Q04DX003 (ip), vehicle: Klucel (hydroxypropylcellulose) (HPC) 102 % of control | dose: 400.0 mg/kg/injection, schedule: Q04DX003 (ip), vehicle: Klucel (hydroxypropylcellulose) (HPC) 92 % of control

C#CCN(C)Cc1ccccc1
inactive: [6] 97 % of control | [1] 97 % of control | [2] 100 % of control

C=CCOCC(O)CO (stereo unspecified)
inactive: dose: 100.0 mg/kg/injection, schedule: Q04DX003 (ip), vehicle: saline 109 % of control | dose: 200.0 mg/kg/injection, schedule: Q04DX003 (ip), vehicle: saline 93 % of control | dose: 400.0 mg/kg/injection, schedule: Q04DX003 (ip), vehicle: saline 102 % of control

C=CCN(CC=C)P(=O)(N1CC1C)N1CC1C (stereo unspecified)
inactive: dose: 0.31 mg/kg/injection, schedule: Q01DX009 (ip), vehicle: saline 109 % of control | dose: 0.63 mg/kg/injection, schedule: Q01DX009 (ip), vehicle: saline 112 % of control | [11] 122 % of control | dose: 2.5 mg/kg/injection, schedule: Q01DX009 (ip), vehicle: saline 99 % of control

CC(C)(C)c1cc([N+](=O)[O-])cc(C(C)(C)C)c1O
inactive: dose: 25.0 mg/kg/injection, schedule: Q01DX009 (ip), vehicle: Klucel (hydroxypropylcellulose) (HPC) 95 % of control | [10] 93 % of control | [8] 95 % of control

COCCNCCOC
inactive: dose: 160.0 mg/kg/injection, schedule: Q01DX009 (ip), vehicle: saline 118 % of control | dose: 370.0 mg/kg/injection, schedule: Q01DX009 (ip), vehicle: saline 121 % of control

CC(=O)Nc1ccn(C2OC(COC(C)=O)C(OC(C)=O)C2OC(C)=O)c(=O)n1 (stereo unspecified)
inactive: dose: 150.0 mg/kg/injection, schedule: Q01DX009 (ip), vehicle: saline with Tween-80 103 % of control | dose: 300.0 mg/kg/injection, schedule: Q01DX009 (ip), vehicle: saline with Tween-80 114 % of control | dose: 600.0 mg/kg/injection, schedule: Q01DX009 (ip), vehicle: saline with Tween-80 119 % of control | dose: 1200.0 mg/kg/injection, schedule: Q01DX009 (ip), vehicle: saline with Tween-80 123 % of control

CN(C)CCCCO
inactive: [2] 96 % of control | [7] 96 % of control | [12] 89 % of control

COc1cc(/C=C/C(N)=O)cc(OC)c1OC
inactive: [1] 107 % of control | [7] 94 % of control | [12] 102 % of control

C=CCN(CC=C)P(=O)(N1CC1)N1CC1C (stereo unspecified)
inactive: dose: 0.36 mg/kg/injection, schedule: Q01DX009 (ip), vehicle: saline 112 % of control | dose: 0.5 mg/kg/injection, schedule: Q01DX009 (ip), vehicle: saline 110 % of control | dose: 0.83 mg/kg/injection, schedule: Q01DX009 (ip), vehicle: saline 116 % of control | [11] 114 % of control | dose: 1.8 mg/kg/injection, schedule: Q01DX009 (ip), vehicle: saline 99 % of control

C1#CCCCCCC#CCCCC1
inactive: dose: 12.5 mg/kg/injection, schedule: Q01DX009 (ip), vehicle: saline with Tween-80 89 % of control | dose: 12.5 mg/kg/injection, schedule: Q04DX003 (ip), vehicle: saline with Tween-80 91 % of control | dose: 25.0 mg/kg/injection, schedule: Q04DX003 (ip), vehicle: saline with Tween-80 97 % of control | [3] 100 % of control | dose: 50.0 mg/kg/injection, schedule: Q04DX003 (ip), vehicle: saline with Tween-80 89 % of control and 94 % of control
